This assay has as its target T1, DDR2 T654M (Homo sapiens, UniProt Q16832, T654M).
T1 construct: purchased Thermo Fisher Scientific (Life Technologies) SelectScreen
Put plainly: SelectScreen LanthaScreen. It counts as binding. As to conditions: read-out: % displacement. An outline of the steps: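 Percent values come from Thermo SelectScreen profiling of NU5455, combining activity and binding assays. CSF1R was run in Z'LYTE format at Km app ATP, and CAMK1 in Adapta format with ATP listed at 10.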
(In general: In TR-FRET formats the signal depends on donor and acceptor labels being close together.)

T1 sequence (Q16832 22-855 T654M): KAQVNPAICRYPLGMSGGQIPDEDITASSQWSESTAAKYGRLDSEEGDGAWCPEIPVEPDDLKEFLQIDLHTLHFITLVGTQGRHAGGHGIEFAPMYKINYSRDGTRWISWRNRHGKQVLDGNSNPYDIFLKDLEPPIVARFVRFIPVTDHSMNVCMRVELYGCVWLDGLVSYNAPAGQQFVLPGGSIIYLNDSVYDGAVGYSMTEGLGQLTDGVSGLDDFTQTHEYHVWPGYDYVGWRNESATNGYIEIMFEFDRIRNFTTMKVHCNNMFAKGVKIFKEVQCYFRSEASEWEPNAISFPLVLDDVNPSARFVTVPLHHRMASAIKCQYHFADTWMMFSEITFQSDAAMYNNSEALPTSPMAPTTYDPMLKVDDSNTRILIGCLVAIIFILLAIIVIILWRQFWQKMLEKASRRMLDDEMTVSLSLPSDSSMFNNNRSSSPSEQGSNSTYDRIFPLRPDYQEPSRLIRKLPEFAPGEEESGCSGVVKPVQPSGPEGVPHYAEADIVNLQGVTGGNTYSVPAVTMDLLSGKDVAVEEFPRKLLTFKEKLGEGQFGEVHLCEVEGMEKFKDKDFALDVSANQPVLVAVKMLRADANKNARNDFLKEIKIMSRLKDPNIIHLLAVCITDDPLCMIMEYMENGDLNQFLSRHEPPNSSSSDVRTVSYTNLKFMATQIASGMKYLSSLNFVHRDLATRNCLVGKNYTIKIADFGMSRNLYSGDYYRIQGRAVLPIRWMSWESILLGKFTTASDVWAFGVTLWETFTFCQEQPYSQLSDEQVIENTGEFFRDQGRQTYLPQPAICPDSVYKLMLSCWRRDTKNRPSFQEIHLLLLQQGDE

Regarding `CN(C(=O)CN1CCOCC1)c1ccc2sc3c(-c4cccc5c(=O)cc(N6CC7CCC(C6)O7)oc45)cccc3c2c1` [NU5455], the inhibition at 1 µM turned out to be 2.5%.
